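Growth conditions: 96-well plates. Treatment: test compound, 48 hours, 5 concentrations. Analysis: linear interpolation between bracketing concentrations; unreached endpoints set to highest concentration. Abbreviation: GI50, concentration required for 50% inhibition of growth.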 Activity calls are given as the source filed them. Rule as the data show it: active = GI50 up to about 1.1 µM and inactive = higher.
What was measured:
Assay in all cases: inhibition of tumour cell growth, NCI panel, 48 h
NCI-H522 = system: NCI-H522
OVCAR-4 = system: OVCAR-4
K562 = system: K562
EKVX = system: EKVX
SF-539 = system: SF-539
Malme-3M = system: Malme-3M
LOX IMVI = system: LOX IMVI
786-0 = system: 786-0
HT-29 = system: HT-29
HOP-92 = system: HOP-92
SF-295 = system: SF-295
TK-10 = system: TK-10
SK-MEL-5 = system: SK-MEL-5
SN12C = system: SN12C
SK-MEL-2 = system: SK-MEL-2
CAKI-1 = system: CAKI-1
OVCAR-8 = system: OVCAR-8
UO-31 = system: UO-31
SNB-75 = system: SNB-75

Measured: GI50

COC12C=C(C)C(CC1)CC2C(=O)O (stereo not drawn)
inactive: NCI-H522 > 100 µM | OVCAR-4 > 100 µM | K562 > 100 µM | EKVX > 100 µM | SF-539 > 100 µM | Malme-3M > 100 µM | LOX IMVI > 100 µM | 786-0 > 100 µM | HT-29 > 100 µM | HOP-92 > 100 µM | SF-295 > 100 µM | TK-10 > 100 µM | SK-MEL-5 > 100 µM | SN12C > 100 µM | SK-MEL-2 > 100 µM | CAKI-1 > 100 µM | OVCAR-8 > 100 µM | UO-31 > 100 µM | SNB-75 > 100 µM

C=C1C(=O)OC2C[C@H](C)C3CC(=O)C(C)=C3CC12 (stereo partly drawn)
inactive: NCI-H522 1.75 µM | OVCAR-4 14.2 µM | K562 4.47 µM | EKVX 16.3 µM | SF-539 17.2 µM | Malme-3M 11.8 µM | LOX IMVI 15 µM | 786-0 13 µM | HT-29 12.5 µM | HOP-92 10.5 µM | SF-295 25.2 µM | TK-10 15.8 µM | SK-MEL-5 15.5 µM | SN12C 12.1 µM | SK-MEL-2 14.2 µM | CAKI-1 5.09 µM | OVCAR-8 16.8 µM | UO-31 11.8 µM | SNB-75 14.6 µM

COc1ccc2c(c1)c(Cc1c(C)n(C)c3ccc(OC)cc13)c(C)n2C
inactive: NCI-H522 34 µM | OVCAR-4 > 100 µM | K562 > 100 µM | EKVX > 100 µM | SF-539 > 100 µM | Malme-3M > 100 µM | LOX IMVI > 100 µM | 786-0 86.1 µM | HT-29 > 100 µM | HOP-92 > 100 µM | SF-295 > 100 µM | TK-10 > 100 µM | SK-MEL-5 > 100 µM | SN12C > 100 µM | SK-MEL-2 > 100 µM | CAKI-1 > 100 µM | OVCAR-8 > 100 µM | UO-31 > 100 µM | SNB-75 > 100 µM

CC(C)(C)OC(=O)C#CC[C@H]1CCCC1/C=C/C(O)=C1/C(=O)NC(CCCNC(=O)OC(C)(C)C)C1=O (stereo partly drawn)
inactive: NCI-H522 16.5 µM | OVCAR-4 33.5 µM | K562 36 µM | EKVX 16.3 µM | SF-539 26.4 µM | Malme-3M 21.3 µM | LOX IMVI 19.8 µM | 786-0 40.6 µM | HT-29 40.1 µM | HOP-92 23.7 µM | SF-295 41.4 µM | TK-10 31.9 µM | SK-MEL-5 47.8 µM | SN12C 40.1 µM | SK-MEL-2 16.6 µM | CAKI-1 38.8 µM | OVCAR-8 15.2 µM | UO-31 33.7 µM | SNB-75 32.6 µM

COc1ccc(/C(Cl)=C(\C=O)c2ccc([N+](=O)[O-])cc2)cc1
inactive: NCI-H522 4.36 µM | OVCAR-4 17.5 µM | K562 3.12 µM | EKVX 21.8 µM | SF-539 12.6 µM | Malme-3M 15.6 µM | LOX IMVI 3.49 µM | 786-0 13.3 µM | HT-29 4.57 µM | HOP-92 6.97 µM | SF-295 13.2 µM | TK-10 30.1 µM | SK-MEL-5 13.2 µM | SN12C 12.3 µM | SK-MEL-2 6.98 µM | CAKI-1 11.1 µM | OVCAR-8 10.9 µM | UO-31 18.5 µM | SNB-75 5.35 µM

CC1=C(O)C(=O)C2C(=O)C1C(C)C2c1ccc(Cl)cc1 (stereo not drawn)
inactive: NCI-H522 > 100 µM | OVCAR-4 > 100 µM | K562 > 100 µM | EKVX > 100 µM | SF-539 > 100 µM | Malme-3M > 100 µM | LOX IMVI > 100 µM | 786-0 > 100 µM | HT-29 > 100 µM | HOP-92 > 100 µM | SF-295 > 100 µM | TK-10 > 100 µM | SK-MEL-5 > 100 µM | SK-MEL-2 > 100 µM | CAKI-1 > 100 µM | OVCAR-8 > 100 µM | UO-31 > 100 µM | SNB-75 72.3 µM
